Where two headings read alike, the source gives them in different places.
How the values were obtained:
rats [1] = format: in vivo, rat; conditions: rats of the MAP/HR figures, 2×ED50, tail vein; same value in min
Method in brief: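 Hemodynamic stability judged from mean arterial pressure and heart rate, recorded at 15 s intervals over 30 min pre- and post-dose. Dosing was through a tail-vein indwelling catheter in rats carrying implanted aortic/ventricular catheters and ECG wires, operated ≥1 week earlier.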

rats [2] = test system: rats
Description: Adult male Sprague-Dawley rats (250-300 g) were selected for the experiment. […] The anesthesia effects of the compounds were assessed in rats using a LORR assay and a period >30 s was considered as an indicator of general anesthesia. Then the up and down method was used to determine 50% effective dose (ED50). The drugs were administered through the tail vein of rats in a volume of 0.6 mL and at a rate of 0.1 mL/s.

rats [3] = conditions: continuous tail vein infusion at 2×MIR, LORR maintained 1 hour
Description: Pharmacological Effects of the Compounds on Continuous Infusion in Rats
Adult male Sprague-Dawley rats with body weight ranging from 250 to 300 gm were selected for continuous infusion test. […] Time to recovery of righting reflex from stopping infusion, and time to fully awake from stopping infusion were recorded.

rats [4] = test: Pharmacological characteristics at equivalent doses (2×ED50) in rats; conditions: 2×ED50, tail vein; for Adverse reactions: Red urine (incidence): DMSO solution (DMSO alone 10/10); for Adverse reactions: Tremor (incidence): animals affected/animals; for Onset time: time of LORR
Method in brief: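 Anesthesia onset, recorded as time of LORR, was measured after a 2×ED50 tail-vein injection (0.6 mL, 0.1 mL/s). Animals were male Sprague-Dawley rats of 250-300 g, n=8.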

rats [5] = format: in vivo, rat; conditions: rats of the MAP/HR figures, 2×ED50, tail vein
rats [6] = test: Loss of righting reflexes (LORR) assay in rats, ED50 by up and down method; format: in vivo, rat; conditions: tail vein, class symbols; for ED50: Rattus norvegicus
Method in brief: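 ED50 obtained by up-and-down dosing, with righting-reflex loss over 30 s counted as general anesthesia. Compounds injected into the tail vein (0.1 mL/s) of male Sprague-Dawley rats weighing 250-300 g.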

## C=C=CC1(OC(=O)c2c(F)ncn2[C@H](C)c2ccccc2)CCC1 [Compound E64]
Rats [1]
  recovery time of the test animals' righting reflex: 2.48 min
Rats [2]
  Approximate therapeutic index: >40
  Minimal lethal dose: >1.5 mg/kg
Rats [3]; Table E4
  Onset time: 2 to 3 min
  Recovery time after stopping infusion: 11 to 14 min
  Types and incidence of adverse reactions: No
Rats [4]
  Righting reflex duration: 2.28 ± 1.28 min
  Adverse reactions: Red urine (incidence): urine (8/8)
  Adverse reactions: Tremor (incidence): (2/8), Red
  Onset time: 0.31 ± 0.06 min
Rats [5]
  recovery time of the test animals' righting reflex: 149 s
Rats [6]
  ED50: 0.01 to 0.1 mg/kg

## C#CC1(OC(=O)c2c(Cl)nc(Cl)n2[C@H](C)c2ccccc2)COC1 [Compound E148]
Rats [1]
  recovery time of the test animals' righting reflex: 0.97 min
Rats [2]
  Approximate therapeutic index: >12
  Minimal lethal dose: >10 mg/kg
Rats [3]; Table E4
  Onset time: 3 to 4 min
  Recovery time after stopping infusion: 11 to 16 min
  Types and incidence of adverse reactions: Myoclonus (2/6), Tremor (3/6)
Rats [4]
  Righting reflex duration: 0.49 ± 0.38 min
  Adverse reactions: Red urine (incidence): urine (8/8)
  Adverse reactions: Tremor (incidence): (5/8), Red
  Onset time: 0.75 ± 0.24 min
Rats [5]
  recovery time of the test animals' righting reflex: 58 s
Rats [6]
  ED50: 0.5 to 1 mg/kg

## C#CC1(OC(=O)c2cncn2[C@H](C)c2ccccc2)COC1 [Compound D3]
Rats [1]
  recovery time of the test animals' righting reflex: 1.27 min
Rats [2]
  Approximate therapeutic index: >10
  Minimal lethal dose: >8 mg/kg
Rats [3]; Table D4
  Onset time: 2 to 3 min
  Recovery time after stopping infusion: 7 to 9 min
  Types and incidence of adverse reactions: Restlessness (2/6), Tremor (3/6)
Rats [4]
  Adverse reactions: Restlessness (incidence): Restlessness (4/8), Red
  Righting reflex duration: 1.05 ± 0.29 min
  Adverse reactions: Red urine (incidence): urine (8/8)
  Onset time: 0.19 ± 0.05 min
Rats [5]
  recovery time of the test animals' righting reflex: 76 s
Rats [6]
  ED50: 0.5 to 1 mg/kg

## C=CC#CC(C)(C)OC(=O)c1c(F)ncn1[C@H](C)c1ccccc1 [Compound E21]
Rats [1]
  recovery time of the test animals' righting reflex: 2.58 min
Rats [2]
  Approximate therapeutic index: >12
  Minimal lethal dose: >9 mg/kg
Rats [4]
  Righting reflex duration: 2.76 ± 2.17 min
  Sedation duration (mg/kg): 7.71 ± 3.03
  Adverse reactions: Red urine (incidence): (8/8)
  Onset time: 0.49 ± 0.20 min
Rats [5]
  recovery time of the test animals' righting reflex: 155 s
Rats [6]
  ED50 (mg/kg): C (C indicates that the measured ED50 is in the range of 0.50-1.00 mg/kg (excluding 0.50 mg/kg, including 1.00 mg/kg).)

## CCC(C)(CC)OC(=O)c1c(F)ncn1[C@H](C)c1ccccc1 [Compound E30]
Rats [1]
  recovery time of the test animals' righting reflex: 1.33 min
Rats [2]
  Approximate therapeutic index: >42
  Minimal lethal dose: >6 mg/kg
Rats [4]
  Righting reflex duration: 1.23 ± 0.58 min
  Adverse reactions: Red urine (incidence): (8/8)
  Onset time: 0.60 ± 0.18 min
Rats [5]
  recovery time of the test animals' righting reflex: 80 s
Rats [6]
  ED50: 0.1 to 0.5 mg/kg

## CC(=O)C1(OC(=O)c2cncn2[C@H](C)c2ccccc2)CC1 [Compound C1]
Rats [1]
  recovery time of the test animals' righting reflex: 2.17 min
Rats [2]
  Approximate therapeutic index: >90
  Minimal lethal dose: >20 mg/kg
Rats [4]
  Righting reflex duration: 1.9 ± 0.64 min
  Adverse reactions: Red urine (incidence): (8/8)
  Adverse reactions: Tremor (incidence): Tremor (8/8), Red urine
  Onset time: 0.15 ± 0.09 min
Rats [5]
  recovery time of the test animals' righting reflex: 130 s
Rats [6]
  ED50: 0.01 to 0.1 mg/kg

## C=C=CC(C)OC(=O)c1c(F)ncn1[C@H](C)c1ccccc1 (stereo partly drawn) [Compound E18]
Rats [1]
  recovery time of the test animals' righting reflex: 2.63 min
Rats [2]
  Approximate therapeutic index: >20
  Minimal lethal dose: >1 mg/kg
Rats [4]
  Righting reflex duration: 2.51 ± 1.69 min
  Adverse reactions: Red urine (incidence): (8/8)
  Onset time: 0.40 ± 0.20 min
Rats [5]
  recovery time of the test animals' righting reflex: 158 s
Rats [6]
  ED50: 0.01 to 0.1 mg/kg

## C=CC#CC(C)OC(=O)c1c(F)ncn1[C@H](C)c1ccccc1 (stereo partly drawn) [Compound E20]
Rats [1]
  recovery time of the test animals' righting reflex: 0.85 min
Rats [2]
  Approximate therapeutic index: >80
  Minimal lethal dose: >5 mg/kg
Rats [4]
  Adverse reactions: Tongue stretching (incidence): (2/8),
  Righting reflex duration: 0.75 ± 0.21 min
  Adverse reactions: Red urine (incidence): (8/8)
  Onset time: 0.51 ± 0.16 min
Rats [5]
  recovery time of the test animals' righting reflex: 51 s
Rats [6]
  ED50: 0.01 to 0.1 mg/kg

## CCC(CC)OC(=O)c1c(F)ncn1[C@H](C)c1ccccc1 [Compound E22]
Rats [1]
  recovery time of the test animals' righting reflex: 1.10 min
Rats [2]
  Approximate therapeutic index: >30
  Minimal lethal dose: >4 mg/kg
Rats [4]
  Righting reflex duration: 0.99 ± 0.70 min
  Sedation duration (mg/kg): 5.51 ± 1.13
  Adverse reactions: Red urine (incidence): urine (8/8)
  Adverse reactions: Tremor (incidence): (4/8), Red
  Onset time: 0.73 ± 0.13 min
Rats [5]
  recovery time of the test animals' righting reflex: 66 s
Rats [6]
  ED50 (mg/kg): B (B means that the measured ED50 is in the range of 0.10-0.50 mg/kg (excluding 0.10 mg/kg, including 0.50 mg/kg).)

## C#CC(C)(C)OC(=O)c1c(F)ncn1[C@H](C)c1ccccc1 [Compound E25]
Rats [1]
  recovery time of the test animals' righting reflex: 2.23 min
Rats [2]
  Approximate therapeutic index: >24
  Minimal lethal dose: >6 mg/kg
Rats [4]
  Adverse reactions: Restlessness (incidence): (2/8), Red
  Righting reflex duration: 2.10 ± 0.86 min
  Adverse reactions: Red urine (incidence): urine (8/8)
  Onset time: 0.25 ± 0.09 min
Rats [5]
  recovery time of the test animals' righting reflex: 134 s
Rats [6]
  ED50: 0.1 to 0.5 mg/kg

## C[C@H](c1ccccc1)n1cnc(F)c1C(=O)OC1(C)CCC1 [Compound E27]
Rats [1]
  recovery time of the test animals' righting reflex: 4.10 min
Rats [2]
  Approximate therapeutic index: >24
  Minimal lethal dose: >6 mg/kg
Rats [4]
  Righting reflex duration: 4.13 ± 1.12 min
  Sedation duration (mg/kg): 10.23 ± 1.60
  Adverse reactions: Red urine (incidence): (8/8)
  Onset time: 0.31 ± 0.10 min
Rats [5]
  recovery time of the test animals' righting reflex: 246 s
Rats [6]
  ED50 (mg/kg): B (B means that the measured ED50 is in the range of 0.10-0.50 mg/kg (excluding 0.10 mg/kg, including 0.50 mg/kg).)

## C[C@H](c1ccccc1)n1cnc(F)c1C(=O)OC1COC1 [Compound E10]
Rats [1]
  recovery time of the test animals' righting reflex: 2.70 min
Rats [2]
  Approximate therapeutic index: >14
  Minimal lethal dose: >10 mg/kg
Rats [4]
  Righting reflex duration: 2.59 ± 0.85 min
  Adverse reactions: Red urine (incidence): (8/8)
  Onset time: 0.21 ± 0.05 min
Rats [5]
  recovery time of the test animals' righting reflex: 162 s
Rats [6]
  ED50: 0.5 to 1 mg/kg

## CC(C)OC(=O)c1c(F)ncn1[C@H](C)c1ccccc1 [Compound E24]
Rats [1]
  recovery time of the test animals' righting reflex: 1.25 min
Rats [2]
  Approximate therapeutic index: >45
  Minimal lethal dose: >4 mg/kg
Rats [4]
  Righting reflex duration: 1.00 ± 0.29 min
  Adverse reactions: Red urine (incidence): (8/8)
  Onset time: 0.38 ± 0.14 min
Rats [5]
  recovery time of the test animals' righting reflex: 75 s
Rats [6]
  ED50: 0.01 to 0.1 mg/kg

## CCCC(C)(C)OC(=O)c1c(F)ncn1[C@H](C)c1ccccc1 [Compound E29]
Rats [1]
  recovery time of the test animals' righting reflex: 2.75 min
Rats [2]
  Approximate therapeutic index: >15
  Minimal lethal dose: >6 mg/kg
Rats [4]
  Righting reflex duration: 2.74 ± 2.63 min
  Adverse reactions: Red urine (incidence): (8/8)
  Onset time: 0.48 ± 0.21 min
Rats [5]
  recovery time of the test animals' righting reflex: 165 s
Rats [6]
  ED50: 0.1 to 0.5 mg/kg

## C=C=CC1(OC(=O)c2cncn2[C@H](C)c2ccccc2)CCOCC1 [Compound D34]
Rats [1]
  recovery time of the test animals' righting reflex: 2.83 min
Rats [2]
  Approximate therapeutic index: >13
  Minimal lethal dose: >8 mg/kg
Rats [4]
  Righting reflex duration: 4.50 ± 0.86 min
  Adverse reactions: Red urine (incidence): Red urine (8/8)
  Onset time: 0.11 ± 0.04 min
Rats [5]
  recovery time of the test animals' righting reflex: 170 s
Rats [6]
  ED50: 0.5 to 1 mg/kg

## C=CC1(OC(=O)c2cncn2[C@H](C)c2ccccc2)COC1 [Compound D7]
Rats [1]
  recovery time of the test animals' righting reflex: 6.83 min
Rats [2]
  Approximate therapeutic index: >10
  Minimal lethal dose: >6 mg/kg
Rats [4]
  Righting reflex duration: 3.20 ± 0.81 min
  Adverse reactions: Red urine (incidence): Red urine (8/8)
  Onset time: 0.10 ± 0.01 min
Rats [5]
  recovery time of the test animals' righting reflex: 410 s
Rats [6]
  ED50: 0.5 to 1 mg/kg

## CC#CC(C)(C)OC(=O)c1c(F)ncn1[C@H](C)c1ccccc1 [Compound E17]
Rats [1]
  recovery time of the test animals' righting reflex: 3.27 min
Rats [2]
  Approximate therapeutic index: >32
  Minimal lethal dose: >9 mg/kg
Rats [4]
  Adverse reactions: Muscle twitching (incidence): (1/8),
  Righting reflex duration: 3.12 ± 1.61 min
  Adverse reactions: Red urine (incidence): (8/8)
  Onset time: 0.26 ± 0.07 min
Rats [5]
  recovery time of the test animals' righting reflex: 196 s
Rats [6]
  ED50: 0.1 to 0.5 mg/kg

## CC#CC1(OC(=O)c2c(F)ncn2[C@H](C)c2ccccc2)COC1 [Compound E15]
Rats [1]
  recovery time of the test animals' righting reflex: 1.20 min
Rats [2]
  Approximate therapeutic index: >32
  Minimal lethal dose: >5 mg/kg
Rats [4]
  Righting reflex duration: 1.10 ± 0.89 min
  Adverse reactions: Red urine (incidence): urine (8/8)
  Adverse reactions: Tremor (incidence): (2/8), Red
  Onset time: 0.42 ± 0.13 min
Rats [5]
  recovery time of the test animals' righting reflex: 72 s
Rats [6]
  ED50: 0.1 to 0.5 mg/kg

From patent US11434205B2, “Substituted imidazole carboxylate derivatives and the use thereof” (priority 2018, dated 2022)
